Laboratory results from patent US9169224B2, “Piperazinyl and piperidinyl ureas as modulators of fatty acid amide hydrolase” (Janssen Pharmaceutica NV, priority 2004, dated 2015).

target: FAAH (Homo sapiens (Human), UniProt O00519); assay: Assay Method 1: FAAH assay, T84 cell homogenate, 3H-anandamide hydrolysis; assay type: biochemical; conditions: 3H-AEA tracer 200 nM, 1 h at rt
Procedure: T84 frozen pellets (contents of 1-4×15 cm culture dishes) were homogenized in 300 mL of FAAH assay buffer (125 mM Tris, 1 mM EDTA, 0.2% glycerol, 0.02% Triton X-100, 0.4 mM Hepes, pH 9). The assay mixture was prepared from 50 μL of the cell homogenate, 10 μL of the test compound, and 40 μL of anandamide [1-3H-ethanolamine] (^3H-AEA; Perkin-Elmer, 10.3 Ci/mmol), which was added last, for a final tracer concentration of 200 nM. The reaction mixture was incubated at rt for 1 hour (h). During the incubation, 96-well Multiscreen filter plates (catalog number MAFCNOB50; Millipore, Bedford, Mass., USA) were loaded with 25 μL of activated charcoal (Multiscreen column loader, catalog number MACL09625, Millipore) and washed once with 100 μL of MeOH. Also during the incubation, 96-well DYNEX MicroLite plates (catalog number NL510410) were loaded with 100 μL of MicroScint40 (catalog number 6013641, Packard Bioscience, Meriden, Conn., USA). After the 1 h incubation, 60 μL of the reaction mixture were transferred to the charcoal plates, which were then assembled on top of the DYNEX plates using Centrifuge Alignment Frames (catalog number MACF09604, Millipore). The unbound, labeled ethanolamine was centrifuged through to the bottom plate (5 min at 2000 rpm), which was preloaded with the scintillant, as described above. The plates were sealed and left at rt for 1 h before counting on a Hewlett Packard TopCount.

FAAH, sequence (O00519 whole entry): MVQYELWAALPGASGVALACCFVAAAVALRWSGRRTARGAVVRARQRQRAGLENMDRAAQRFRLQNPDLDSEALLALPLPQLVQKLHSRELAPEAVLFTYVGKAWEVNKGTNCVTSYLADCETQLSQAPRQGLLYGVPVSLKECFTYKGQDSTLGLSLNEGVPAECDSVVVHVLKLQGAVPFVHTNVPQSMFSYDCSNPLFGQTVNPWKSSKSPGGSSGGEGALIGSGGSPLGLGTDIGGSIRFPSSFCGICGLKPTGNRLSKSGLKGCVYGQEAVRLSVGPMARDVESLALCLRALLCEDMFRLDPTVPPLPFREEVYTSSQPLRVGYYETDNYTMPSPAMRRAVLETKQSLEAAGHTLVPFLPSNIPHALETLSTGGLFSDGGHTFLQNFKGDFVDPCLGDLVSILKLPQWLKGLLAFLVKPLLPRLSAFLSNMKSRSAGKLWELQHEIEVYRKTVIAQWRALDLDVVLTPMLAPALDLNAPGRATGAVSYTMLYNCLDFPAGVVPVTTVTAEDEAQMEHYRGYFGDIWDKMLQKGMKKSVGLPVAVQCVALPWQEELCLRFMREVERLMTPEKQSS

IC50	SMILES
480 nM	Cc1cc(CN2CCN(C(=O)Nc3ccccc3)CC2)c(C)n1-c1cccc(C(F)(F)F)c1 [Example 83, 4-[2,5-Dimethyl-1-(3-trifluoromethyl-phenyl)-1H-pyrrol-3-ylmethyl]-piperazine-1-carboxylic acid phenylamide]
160 nM	O=C(Nc1ccccc1)N1CCN(Cc2cccc(Oc3cccc(Cl)c3)c2)CC1 [Example 130, 4-[3-(3-Chloro-phenoxy)-benzyl]-piperazine-1-carboxylic acid phenylamide]
170 nM	CCCOc1cccc(CN2CCN(C(=O)Nc3ccccc3)CC2)c1 [Example 120, 4-(3-Propoxy-benzyl)-piperazine-1-carboxylic acid phenylamide]
20 nM	O=C(Nc1ccccc1)N1CCN(Cc2cccc(Oc3ccc(Cl)c(Cl)c3)c2)CC1 [Example 61, 4-[3-(3,4-Dichloro-phenoxy)-benzyl]-piperazine-1-carboxylic acid phenylamide]
240 nM	O=C(Nc1ccncc1)N1CCN(Cc2ccc(Br)c(Br)c2)CC1 [Example 116, 4-(3,4-Dibromo-benzyl)-piperazine-1-carboxylic acid pyridin-4-ylamide]
5000 nM	O=C(Nc1ccccc1)N1CCN(Cc2cccc(Oc3cc(Cl)cc(Cl)c3)c2)CC1 [Example 78, 4-[3-(3,5-Dichloro-phenoxy)-benzyl]-piperazine-1-carboxylic acid phenylamide]
65 nM	CS(=O)(=O)c1ccc(Oc2cccc(CN3CCN(C(=O)Nc4ccccc4)CC3)c2)cc1 [Example 134, 4-[3-(4-Methanesulfonyl-phenoxy)-benzyl]-piperazine-1-carboxylic acid phenylamide]
21 nM	O=C(Nc1ccc(F)cc1)N1CCN(Cc2ccc(Br)c(Br)c2)CC1 [Example 86, 4-(3,4-Dibromo-benzyl)-piperazine-1-carboxylic acid (4-fluoro-phenyl)-amide]
220 nM	CCOc1cccc(CN2CCN(C(=O)Nc3ccccc3)CC2)c1 [Example 122, 4-(3-Ethoxy-benzyl)-piperazine-1-carboxylic acid phenylamide]
200 nM	COc1cccc(NC(=O)N2CCN(Cc3cnc4ccccc4c3)CC2)c1 [Example 110, 4-Quinolin-3-ylmethyl-piperazine-1-carboxylic acid (3-methoxy-phenyl)-amide]
2300 nM	Cc1cccc(NC(=O)N2CCC(Cc3ccccc3)CC2)c1 [Example 114, 4-Benzyl-piperidine-1-carboxylic acid m-tolylamide]
690 nM	Cc1ccc(NC(=O)N2CCN(Cc3cnc4ccccc4c3)CC2)cc1 [Example 104, 4-Quinolin-3-ylmethyl-piperazine-1-carboxylic acid p-tolylamide]
540 nM	COc1ccccc1NC(=O)N1CCN(Cc2cnc3ccccc3c2)CC1 [Example 102, 4-Quinolin-3-ylmethyl-piperazine-1-carboxylic acid (2-methoxy-phenyl)-amide]
> 10000 nM	O=C(Nc1ccccc1)N1CCN(Cc2ccccc2OCc2ccccc2)CC1 [Example K, 4-(2-Benzyloxy-benzyl)-piperazine-1-carboxylic acid phenylamide, reference compound]
4000 nM	COc1ccc(CN2CCN(C(=O)Nc3ccccc3)CC2)cc1OC [Example 44, 4-(3,4-Dimethoxy-benzyl)-piperazine-1-carboxylic acid phenylamide]
2000 nM	O=C(Nc1ccccc1)N1CCN(Cc2cccc(OCCCN3CCCCC3)c2)CC1 [Example 128, 4-[3-(3-Piperidin-1-yl-propoxy)-benzyl]-piperazine-1-carboxylic acid phenylamide]

IC50	SMILES
69 nM	O=C(Nc1ccccc1)N1CCN(Cc2ccc(Br)cc2)CC1 [Example 27, 4-(4-Bromo-benzyl)-piperazine-1-carboxylic acid phenylamide]
1100 nM	COc1cccc(CN2CCN(C(=O)Nc3ccccc3)CC2)c1 [Example 39, 4-(3-Methoxy-benzyl)-piperazine-1-carboxylic acid phenylamide]
1700 nM	O=C(Nc1ccccc1)N1CCN(CCCc2ccccc2)CC1 [Example I, 4-(3-Phenyl-propyl)-piperazine-1-carboxylic acid phenylamide, reference compound]
1300 nM	Cc1ccc(CN2CCN(C(=O)Nc3ccccc3)CC2)cc1 [Example E, 4-(4-Methyl-benzyl)-piperazine-1-carboxylic acid phenylamide, reference compound]
59 nM	O=C(Nc1ccccc1)N1CCN(Cc2cccc(OS(=O)(=O)c3ccccc3)c2)CC1 [Example 138, Benzenesulfonic acid 3-(4-phenylcarbamoyl-piperazin-1-ylmethyl)-phenyl ester]
380 nM	O=C(Nc1ccccc1)N1CCN(Cc2cccc(OS(=O)(=O)c3ccc(Cl)cc3)c2)CC1 [Example 139, 4-Chloro-benzenesulfonic acid 3-(4-phenylcarbamoyl-piperazin-1-ylmethyl)-phenyl ester]
27 nM	O=C(Nc1cccnc1)N1CCN(Cc2ccc(Br)c(Br)c2)CC1 [Example 118, 4-(3,4-Dibromo-benzyl)-piperazine-1-carboxylic acid pyridin-3-ylamide]
28 nM	O=C(Nc1ccccc1)N1CCN(Cc2ccc3cccc(Cl)c3n2)CC1 [Example 55, 4-(8-Chloro-quinolin-2-ylmethyl)-piperazine-1-carboxylic acid phenylamide]
360 nM	O=C(Nc1ccccn1)N1CCN(Cc2ccc(Br)c(Br)c2)CC1 [Example 117, 4-(3,4-Dibromo-benzyl)-piperazine-1-carboxylic acid pyridin-2-ylamide]
22 nM	O=C(Nc1ccccc1F)N1CCN(Cc2ccc(Br)c(Br)c2)CC1 [Example 89, 4-(3,4-Dibromo-benzyl)-piperazine-1-carboxylic acid (2-fluoro-phenyl)-amide]
100 nM	Cc1cccc(NC(=O)N2CCN(Cc3ccc(Br)c(Br)c3)CC2)c1 [Example 88, 4-(3,4-Dibromo-benzyl)-piperazine-1-carboxylic acid m-tolylamide]
6000 nM	O=C(Nc1ccccc1)N1CCN(Cc2ccc(/C=C/c3ccccc3)cc2)CC1 [Example 81, 4-(4-Styryl-benzyl)-piperazine-1-carboxylic acid phenylamide]
2000 nM	CCOc1ccc(CN2CCN(C(=O)Nc3ccccc3)CC2)cc1 [Example 129, 4-(4-Ethoxy-benzyl)-piperazine-1-carboxylic acid phenylamide]
200 nM	Cc1cccc(NC(=O)N2CCN(Cc3cnc4ccccc4c3)CC2)c1 [Example 109, 4-Quinolin-3-ylmethyl-piperazine-1-carboxylic acid m-tolylamide]
220 nM	O=C(Nc1ccccc1)N1CCN(Cc2cccc(Oc3cccc(C(F)(F)F)c3)c2)CC1 [Example 64, 4-[3-(3-Trifluoromethyl-phenoxy)-benzyl]-piperazine-1-carboxylic acid phenylamide]
8000 nM	O=C(Nc1ccccc1)N1CCN(Cc2ccc3c(c2)Cc2ccccc2-3)CC1 [Example 79, 4-(9H-Fluoren-2-ylmethyl)-piperazine-1-carboxylic acid phenylamide]

SMILES	IC50
CC(C)COc1cccc(CN2CCN(C(=O)Nc3ccccc3)CC2)c1 [Example 121, 4-(3-Isobutoxy-benzyl)-piperazine-1-carboxylic acid phenylamide]	210 nM
